Measured values taken from patent US11590110B2, “Compositions and methods for reactivating latent immunodeficiency virus using a GSK-3 inhibitor” (priority 2017, dated 2023).

Legend:
[1] = tested on: HIV-specific CD8+ T cells; assay: Example 5: granzyme B cytotoxicity assay and infected CD4+ T-cell elimination (ICE); type: cell-based, human; details: 1 μM for 6 days
Description: PBMCs were co-incubated with HIVSF162-infected autologous CD4^+ T-cell targets (E:T 25:1)+/−tideglusib at a final concentration of […] in 96 deep (1 mL) well plates for 6 days. As before, cultured day 6 cells were then labeled with immuno-magnetic beads (CD8 T-cell Isolation Kit II, Miltenyi Biotec) prior to negative selection of CD8^+ T-cells by magnetic automated cell sorting (ref Migueles et al., 2008, 2009). Cytotoxic responses were measured against LIVE/DEAD Fixable Violet Stain (Molecular Probes, Invitrogen Detection Technologies, Eugene, Oreg., USA)-labeled HIVSF162-infected or uninfected autologous CD4^+ T-cell targets in assays examining GrB target cell activity and infected CD4^+ T-cell elimination (ICE) as previously reported (ref Migueles et al., 2008, 2009). Cells were analyzed on a FACSAria multi-laser cytometer (Becton-Dickinson) with FACSDiva software. Gates were drawn on labeled CD4^+ T-cell targets and 5,000-15,000 events were collected. Color compensations were performed using single-stained samples for each of the fluorochromes used. Data were analyzed using FlowJo software (TreeStar, San Carlos, Calif.).

NK cells = assay: Example 5: NK cell viability and cytotoxic effector functions; type: cell-based, human
Description: Density centrifugation using a Ficoll-Hypaqua gradient was performed to purify PBMCs from continuous-flow centrifugation leukapheresis product. Subsequently, cells were plated in 96-well U-bottom plated in complete RPMI, which was supplemented with 10 ng/ml recombinant IL-15 (R&D systems), treated with LRAs or vehicle controls (DMSO) and incubated at 37° C., 5% CO2 for 48 h. To assay NK cell functionality, cells were analyzed by flow cytometry. Briefly, 1×10^6 cells/200 ul were stained with FITC anti-CD107 antibodies (1:50, BD Biosciences), mixed with 1×10^5 K562 cells and incubated at 37° C., 5% CO2 for 1 h. Then, in order to enhance intracellular cytokine staining, protein transport was blocked with Brefeldin A (Sigma-Aldrich) and golgi stop (BD Biosciences) according to the manufacturer instructions and the cells were incubated at 37° C., 5% CO2 for another 5 h. Afterwards, cells were spun down (5 min, 330×g, RT), the supernatant was removed and the cells were stained using Zombie violet (1:50, Biolegend) according to the manufacturer protocol. Subsequently, cells were stained for surface proteins staining with the following antibodies: APC/Cy7 anti CD3 (1:100, Biolegend), APC anti CD14 (1:100, Biolegend), APC anti CD19 (1:100, Biolegend), PE/Cy7 anti CD56 (1:100, BD Biosciences), Alexa Fluor 700 anti CD16 (1:100, Biolegend), PE anti CD7 (1:50, Thermo Fisher Scientific) for 15 min at room temperature. Next, cells were permeabilized and fixed using the Foxp3/Transcription Factor Fixation/Permeabilization Concentrate and Diluent kit (eBioscience) and stained intracellularly with PerCP/Cy5 anti IFN-γ (1:50, BD Bioscience) in FOXP3 perm/wash buffer for 1 h at 4° C. Finally, cells were washed and fixed in 1% paraformaldehyde/PBS, and subjected to flow cytometry analysis on a LSRII (BD Biosciences). Data were obtained using FlowJo software (Treestar). Samples were gated for singlets, live, CD3 negative, CD14/CD19 negative and CD7 positive cells as previously described (York, Milush). CD16high/CD56dim, CD16dim/CD56high cells were considered for analysis of IFN-γ and CD107a positivity. All gates were defined, based on fluorescence minus one (FMO) samples.

[2] = pre-treatment 1 μM 48 hours, then K562 cells

O=c1sn(-c2cccc3ccccc23)c(=O)n1Cc1ccccc1 [Tideglusib, 4-benzyl-2-(naphthalen-1-yl)-1,2,4-thiadiazolidine-3,5-dione]
CD8+ T-mediated infected CD4+ T-cell elimination (ICE) ([1]; 1 hour with infected CD4+ T targets): did not alter production of granzyme B (GrB) or prevent CD8^+ T-mediated infected CD4^+ T-cell elimination (ICE)
production of granzyme B (GrB) ([1]; PBMCs of HIV-positive progressors): did not alter production of granzyme B
viability of NK cells (NK cells; 48 hours): did not reduce viability
IFN-γ production in NK cells (NK cells; [2]): increase in IFN-γ production
increase of surface expression of CD107a in NK cells (NK cells; [2]): less marked
